# Results as given in patent US20070202047A1, “Polyamine-substituted ligands for use as contrast agents” (priority 2006, published 2007).
# System: MH3924A cells
# Assay: Subcellular distribution
# Assay type: cell-based, rat
# Settings: 100 μM, 24 h, 37° C.
# Procedure: Subcellular distribution. 5×10^6 MH3924A cells were grown in 25 cm^2 culture flasks (BD Biosciences, Bedford, USA) for 24 h in 10 mL of the standard culture medium. Cells were then incubated for an additional 24 h with 100 μM Gd-5.1. Afterwards the medium was removed, cells were trypsinated. Then the organelles were isolated with the Subcellular Proteome Extraction Kit ProteoExtract® (Merck, Darmstadt, Germany) according to the instructions of the manufacturer. Four fractions were obtained: Cytosol, membrane organelles (mainly mitochondria), nucleus and cytoskeleton (with associated endosomes and lysosomes). The gadolinium content for each fraction was determined by ICP-MS as described below.
# ICP-MS. Samples containing the above mentioned number of harvested cells were digested with 50% concentrated HNO3 (Superselect; Merck, Darmstadt, Germany) under microwave heating with a Mars 5 apparatus (CEM GmbH, Kamp-Lintfort, Germany). To each sample 100 μL of an aqueous solution of rhodium chloride (1 μg/mL) were added so that Rh-103 could be used as an internal quantification standard. Gd-160 measurements were performed with the ICP-MS instrument mentioned above. The gadolinium concentrations were determined using standard curves created prior to cell analyses. For each uptake incubation condition triplicate cell samples were analyzed, and Gd content for each sample was recorded as the mean of two MS determinations.
structure (smiles),measurement,value
NCCN(CCN)C(=O)CN(CCN(CCN(CC(=O)[O-])CC(=O)N(CCN)CCN)CC(=O)[O-])CC(=O)[O-].[Gd+3] [Gd-5.1],"subcellular concentration, cytoplasma",0.026 fmol/cell
same,"subcellular concentration, cytoskeleton fraction",0.065 fmol/cell
same,"subcellular concentration, nucleus",0.015 fmol/cell
